Source: ChEMBL document CHEMBL1201862, “PubChem BioAssay data set” (2004)
The source made the active and inactive calls.

Legend:
cells = format: functional
Protein skinhead-1 = molecular target: T1, Protein skinhead-1 (Caenorhabditis elegans, UniProt P34707); format: functional
T1 sequence (P34707 whole entry): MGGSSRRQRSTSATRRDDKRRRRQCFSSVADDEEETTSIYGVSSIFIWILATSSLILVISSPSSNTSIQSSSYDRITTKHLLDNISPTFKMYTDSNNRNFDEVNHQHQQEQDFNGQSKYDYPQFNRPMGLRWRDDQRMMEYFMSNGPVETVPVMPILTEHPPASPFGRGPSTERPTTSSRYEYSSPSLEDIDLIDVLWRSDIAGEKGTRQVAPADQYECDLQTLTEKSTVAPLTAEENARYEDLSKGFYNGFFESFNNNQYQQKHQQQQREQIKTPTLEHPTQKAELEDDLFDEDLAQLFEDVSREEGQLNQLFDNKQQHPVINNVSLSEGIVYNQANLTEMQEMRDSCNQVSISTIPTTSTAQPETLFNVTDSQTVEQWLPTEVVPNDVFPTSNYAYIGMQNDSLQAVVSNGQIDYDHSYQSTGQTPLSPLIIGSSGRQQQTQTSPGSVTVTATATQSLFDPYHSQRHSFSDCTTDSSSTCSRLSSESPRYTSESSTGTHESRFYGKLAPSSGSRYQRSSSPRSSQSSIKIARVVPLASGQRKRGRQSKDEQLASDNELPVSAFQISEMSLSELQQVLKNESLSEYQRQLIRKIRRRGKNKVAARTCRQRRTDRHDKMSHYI

Genome polyprotein = Genome polyprotein (dengue virus type 2, UniProt P29990); assay: flavivirus cap methylation enzyme inhibition – biochemical, confirmation dose response, primary screen (AID 588689); format: functional
[1] = Luminescence Cell-Based Dose Confirmation HTS to Identify Inhibitors of Platelet Dense Granule Release. [Related pubchem assays: 1663 (Primary HTS), 1678 (Summary of Project)]; format: functional
[2] = molecular target: Luciferin 4-monooxygenase (Photinus pyralis, UniProt P08659); assay: inhibition of purified Photinus pyralis luciferase – biochemical, luminescence, dose response (AID 1891)
[3] = NIH3T3 cell viability loss – ATP luminescence, mouse fibroblasts, counter-screen, dose response (AID 2010); format: functional, cell-based;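 further: cells exposed to compound for about 90 hours before reading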
[4] = Trypanosoma cruzi growth suppression in host cells – NIH3T3 host cells, beta-gal luminescence, confirmation (AID 2044); format: functional, cell-based;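 further: intracellular parasites grown in NIH/3T3 mouse fibroblasts as host cells; luminescent beta-galactosidase reporter signal from transgenic T. cruzi replicating inside host cells; inhibitors lower the luminescence signal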
[5] = reduction of Shn3 3'UTR-driven luciferase in osteoblasts – cell-based, Clone20 osteoblasts, firefly luciferase, cherry-picked, dose response (AID 624132); format: functional;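 further: firefly luciferase luminescence from reporter carrying the Shn3 3'UTR in osteoblasts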
Streptokinase A = molecular target: T2, Streptokinase A (Streptococcus pyogenes serotype M1, UniProt P10520); assay: viability-normalized secreted streptokinase activity reduction – plasminogen activation absorbance, OD405, dose response (AID 1914); format: functional, Streptococcus pyogenes M1 GAS;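 further: secreted streptokinase activity via plasminogen activation per viability signal from cell pellet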
T2 sequence (P10520 whole entry): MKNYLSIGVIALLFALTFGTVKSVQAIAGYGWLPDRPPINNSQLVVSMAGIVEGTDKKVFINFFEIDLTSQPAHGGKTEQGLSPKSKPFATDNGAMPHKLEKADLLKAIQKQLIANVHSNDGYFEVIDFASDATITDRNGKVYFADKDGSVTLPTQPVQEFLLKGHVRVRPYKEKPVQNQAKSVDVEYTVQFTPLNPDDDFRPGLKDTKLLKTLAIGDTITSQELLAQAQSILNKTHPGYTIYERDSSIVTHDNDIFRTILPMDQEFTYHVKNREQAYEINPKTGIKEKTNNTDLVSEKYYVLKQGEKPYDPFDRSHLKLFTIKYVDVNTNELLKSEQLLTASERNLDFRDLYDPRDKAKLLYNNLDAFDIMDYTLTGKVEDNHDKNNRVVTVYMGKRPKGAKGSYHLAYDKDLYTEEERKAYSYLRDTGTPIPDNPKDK

Streptococcus = assay: GAS UMAA2166 growth inhibition – luminescence, BacTiterGlo, counter-screen for streptokinase expression inhibitor project, dose response (AID 1915); format: functional, organism-based;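 further: potency for reduction of bacterial viability or growth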
[6] = loss of viability in HepG2 cells – cell-based, CellTiter-Glo, cherry-picked, cytotoxicity control for Shn3 inhibitor project, dose response (AID 624134); format: functional
[7] = non-specific 3'UTR reporter inhibition in Clone20-Shn3RL – cell-based, Renilla luciferase, cherry-picked, counter-screen for Shn3 inhibitor project, dose response (AID 624133); format: functional
[8] = tested on: Streptococcus sp. 'group A'; assay: Streptococcus pyogenes SK(-)GAS viability under kanamycin – luminescence, BacTiterGlo, confirmation, counter-screen for streptokinase expression inhibitor project, dose response (AID 1900); format: functional, organism-based
Cytochrome P450 2C9 = Cytochrome P450 2C9 (Homo sapiens, UniProt P11712)
[9] = viability of HCT116 lacking mutant beta-catenin – cell-based, human colon tumor, dose response (AID 1045); format: functional;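 further: HCT116 colon tumor cells with beta catenin knocked out; cells exposed to compound for 60 hours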
Cytochrome P450 3A4 = Cytochrome P450 3A4 (Homo sapiens, UniProt P08684);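 further: CYP3A4 tested as one member of a cytochrome P450 panel screen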
[10] = viability of uninfected HEp-2 cells – cell-based, HTS, cytotoxicity control for RSV inhibitor project, dose response (AID 2410); format: functional; conditions: human respiratory syncytial virus
[11] = molecular target: FAD-linked sulfhydryl oxidase ALR (Homo sapiens, UniProt P55789); assay: ALR-catalysed DTT oxidation blockers – biochemical, H2O2 detection, luminescence, cherry-pick, dose response (AID 493248)
[12] = Luminescence Cell-Based Dose Response HTS to Identify Inhibitors of 5'UTR Stem-Loop Driven Prion Protein mRNA Translation in H4 Neuroglioblastoma Cells. [Related pubchem assays: 1827 (Project Summary), 1813 (Primary HTS)]; format: functional
[13] = alpha-synuclein stem-loop luciferase translation blockers – H4 neuroglioma cells, luminescence, confirmation (AID 1988); format: functional, cell-based

Cytochrome P450 3A4, sequence (P08684 whole entry): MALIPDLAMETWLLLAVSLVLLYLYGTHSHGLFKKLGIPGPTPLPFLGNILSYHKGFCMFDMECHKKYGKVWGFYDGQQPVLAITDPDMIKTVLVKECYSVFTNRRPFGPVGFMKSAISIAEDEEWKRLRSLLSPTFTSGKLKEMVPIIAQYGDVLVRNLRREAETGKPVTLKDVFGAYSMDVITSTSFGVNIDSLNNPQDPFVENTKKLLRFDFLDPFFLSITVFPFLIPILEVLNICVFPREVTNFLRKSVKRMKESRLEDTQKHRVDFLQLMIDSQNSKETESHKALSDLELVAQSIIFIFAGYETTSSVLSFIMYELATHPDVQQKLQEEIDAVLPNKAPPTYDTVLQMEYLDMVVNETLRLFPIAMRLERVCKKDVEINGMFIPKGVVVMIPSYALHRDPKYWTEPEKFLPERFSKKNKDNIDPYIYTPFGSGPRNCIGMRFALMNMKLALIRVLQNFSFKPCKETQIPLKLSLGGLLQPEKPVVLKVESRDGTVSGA
Genome polyprotein, sequence (P29990 2492-3391 limits assumed): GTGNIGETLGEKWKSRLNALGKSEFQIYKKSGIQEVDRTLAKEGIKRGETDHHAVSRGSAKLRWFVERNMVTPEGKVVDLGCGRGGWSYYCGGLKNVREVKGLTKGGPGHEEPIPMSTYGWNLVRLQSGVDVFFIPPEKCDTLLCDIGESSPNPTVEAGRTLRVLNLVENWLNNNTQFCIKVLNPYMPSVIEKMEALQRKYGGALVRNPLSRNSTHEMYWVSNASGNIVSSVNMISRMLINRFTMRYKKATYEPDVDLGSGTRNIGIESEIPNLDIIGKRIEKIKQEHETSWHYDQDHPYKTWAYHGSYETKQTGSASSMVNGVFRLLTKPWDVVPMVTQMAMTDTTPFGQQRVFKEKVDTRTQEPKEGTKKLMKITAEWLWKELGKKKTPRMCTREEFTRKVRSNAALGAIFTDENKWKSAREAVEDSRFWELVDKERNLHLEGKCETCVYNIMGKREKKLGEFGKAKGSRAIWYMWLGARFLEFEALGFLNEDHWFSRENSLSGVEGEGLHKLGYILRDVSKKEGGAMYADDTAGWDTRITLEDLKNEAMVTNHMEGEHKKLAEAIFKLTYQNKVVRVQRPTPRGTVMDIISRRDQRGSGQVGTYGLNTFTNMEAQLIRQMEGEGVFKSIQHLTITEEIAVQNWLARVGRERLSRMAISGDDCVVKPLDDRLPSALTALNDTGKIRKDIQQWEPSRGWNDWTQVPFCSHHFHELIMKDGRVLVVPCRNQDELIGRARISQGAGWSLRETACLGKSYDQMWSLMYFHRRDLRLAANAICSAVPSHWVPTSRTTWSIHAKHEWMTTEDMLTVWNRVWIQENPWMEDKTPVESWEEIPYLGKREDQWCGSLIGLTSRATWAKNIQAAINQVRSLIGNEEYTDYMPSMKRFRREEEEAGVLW
Cytochrome P450 2C9, sequence (P11712 whole entry): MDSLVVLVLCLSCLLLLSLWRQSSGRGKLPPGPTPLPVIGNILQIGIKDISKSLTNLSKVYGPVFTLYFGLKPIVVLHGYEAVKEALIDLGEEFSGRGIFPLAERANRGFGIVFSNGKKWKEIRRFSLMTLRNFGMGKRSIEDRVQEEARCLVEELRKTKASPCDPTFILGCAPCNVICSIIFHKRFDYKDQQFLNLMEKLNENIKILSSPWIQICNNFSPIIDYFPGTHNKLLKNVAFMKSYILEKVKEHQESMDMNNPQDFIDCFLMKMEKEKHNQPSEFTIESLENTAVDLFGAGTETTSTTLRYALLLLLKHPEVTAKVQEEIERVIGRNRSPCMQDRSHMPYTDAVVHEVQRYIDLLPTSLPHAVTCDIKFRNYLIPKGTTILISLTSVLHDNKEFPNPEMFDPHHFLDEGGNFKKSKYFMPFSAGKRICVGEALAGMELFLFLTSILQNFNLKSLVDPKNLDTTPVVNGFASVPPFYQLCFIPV
Luciferin 4-monooxygenase, sequence (P08659 whole entry): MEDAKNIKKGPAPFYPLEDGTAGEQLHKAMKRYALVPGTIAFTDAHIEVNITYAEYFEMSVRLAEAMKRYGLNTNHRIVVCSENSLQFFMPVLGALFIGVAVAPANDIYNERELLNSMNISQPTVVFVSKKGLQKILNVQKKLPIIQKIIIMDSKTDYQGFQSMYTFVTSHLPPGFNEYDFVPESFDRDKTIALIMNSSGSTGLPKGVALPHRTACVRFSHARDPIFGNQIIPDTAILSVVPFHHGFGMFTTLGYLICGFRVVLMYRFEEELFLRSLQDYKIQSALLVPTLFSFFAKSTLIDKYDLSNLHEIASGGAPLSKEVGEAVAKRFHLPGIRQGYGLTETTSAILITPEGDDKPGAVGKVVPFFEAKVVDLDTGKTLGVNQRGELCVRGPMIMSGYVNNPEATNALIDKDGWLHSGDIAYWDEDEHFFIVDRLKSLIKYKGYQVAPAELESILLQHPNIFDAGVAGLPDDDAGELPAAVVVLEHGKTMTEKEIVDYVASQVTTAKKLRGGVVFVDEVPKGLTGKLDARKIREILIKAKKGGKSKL
FAD-linked sulfhydryl oxidase ALR, sequence (P55789 whole entry): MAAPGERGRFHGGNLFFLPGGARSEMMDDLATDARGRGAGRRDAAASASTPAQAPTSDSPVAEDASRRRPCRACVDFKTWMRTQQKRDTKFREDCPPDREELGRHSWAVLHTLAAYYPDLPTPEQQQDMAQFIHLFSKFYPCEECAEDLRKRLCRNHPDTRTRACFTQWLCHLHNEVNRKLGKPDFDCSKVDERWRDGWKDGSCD

For `CCOC(=O)c1csc(-c2snnc2C)n1`, the IC50 (cells) was 13.2 µM (active).
For `O=C1N(c2ccc3c(c2)OCCO3)C(c2ccccc2)C1(F)F` (stereo unspecified), the IC50 (cells) was 7.43 µM (active).
In the case of `Cc1ccc(C)c(NC(=O)c2cc3ccccc3o2)c1`, the IC50 (Protein skinhead-1) was > 100 µM (inactive).
With `O=[N+]([O-])c1c(O)nc(O)nc1/C=C/c1ccc(Cl)cc1Cl` the IC50 (Genome polyprotein) was 49.1 µM (active).
For `Clc1cccc(-c2nc3ccc(Br)cn3c2Cc2ccsc2)c1`, the IC50 (Protein skinhead-1) was 54.8 µM (inactive).
For `Cc1ccccc1OCC(=O)OCC(=O)c1ccc[nH]1`, the IC50 (cells) was 20.3 µM (active).
For `C#CCOc1ccc(/C=C2/C(=O)ON=C2C)cc1Br`, the IC50 (Genome polyprotein) was 80.7 µM (active).
In the case of `O=C(Nc1cnn(Cc2c(Cl)cccc2Cl)c1)C(c1ccccc1)c1ccccc1`, the EC50 [1] was > 112 µM (not active), the EC50 [2] was > 112000 nM (not active) and the EC50 [3] was > 60 µM (not active). The EC50 [4] was 2.06 µM (active).
With `Fc1ccc(-c2nnn(Cc3nc4ccccc4s3)n2)cc1` the IC50 (Protein skinhead-1) was 80.1 µM (inactive).
For `O=C(Nc1nccs1)c1ccccn1`, the IC50 (cells) was 9.47 µM (active).
With `C=CCc1cc(C=C2C(=O)NC(=O)NC2=O)cc(OC)c1OCc1ccc(C(=O)O)cc1` the IC50 (Genome polyprotein) was 29.1 µM (active).
With `Cc1ccc(C(C)C)cc1NC(=O)Nc1ccc([N+](=O)[O-])cc1` the AC50 [5] was 7.19 µM (active), the EC50 (Streptokinase A) was 10.8 µM (active) and the EC50 (Streptococcus) was 17.5 µM (active). The AC50 [6] was 22.4 µM (active), the AC50 [7] was 6.53 µM (active) and the EC50 [8] was 6.64 µM (active).
In the case of `CN(C)C(=O)c1cccc(-c2cnc3c(NC=O)cc(-c4ccc(N(C)C)cc4)cn23)c1`, the IC50 (Protein skinhead-1) was > 100 µM (inactive).
In the case of `CCC[C@H]1C[C@H](C(=O)N[C@H]([C@@H]2O[C@H](SC)[C@@H](O)[C@H](O)[C@@H]2O)[C@H](C)O)N(C)C1`, the AC50 (Cytochrome P450 2C9) was “inconclusive”.
In the case of `COc1ccc(-c2nnc(NC(=O)C3=COCCO3)o2)cc1`, the IC50 (cells) was 8.62 µM (active).
For `COc1ccn(C)c(=O)c1C#N` [RICININE], the AC50 (Cytochrome P450 2C9) was “inconclusive”.
For `CCCCCn1c(=N)n(CC(O)COc2ccccc2OC)c2ccccc21` (stereo unspecified), the AC50 [5] was 2.12 µM (active), the AC50 [6] was 24.2 µM (active) and the AC50 [7] was 23.4 µM (active).
With `O=C(COC(=O)[C@@H]1CCCN1C(=O)c1cccs1)NCCc1ccccc1` the IC50 (Protein skinhead-1) was > 100 µM (inactive).
For `Nc1nc(S)nc2c1C1(CCCCC1)Cc1ccccc1-2`, the AC50 [6] was > 70 µM (inactive) and the AC50 [7] was 25 µM (active).
For `Cc1ncsc1CCOC(=O)c1ccc([N+](=O)[O-])cc1`, the IC50 (cells) was 7.56 µM (active).
In the case of `COc1ccc(C(=O)CCN2CCCCCC2)cc1`, the IC50 (cells) was 22.2 µM (active) and the EC50 [9] was 124 µM (active).
For `Clc1ncc(CSc2ccccc2)s1`, the IC50 (Protein skinhead-1) was 84.8 µM (inactive).
In the case of `O=C(NC1CCCC1)C1CC(c2ccc(F)cc2)=NO1` (stereo unspecified), the AC50 (Cytochrome P450 3A4) was 25.1 µM (inconclusive) and the AC50 (Cytochrome P450 2C9) was “inconclusive”.
With `CN(C)c1ncc2nc(-c3cc(F)cc(F)c3)c(=O)n(CCC#N)c2n1` the AC50 (Cytochrome P450 3A4) was 39.8 µM (inconclusive) and the AC50 (Cytochrome P450 2C9) was “inconclusive”.
In the case of `O=[N+]([O-])c1cc(N=Nc2ccc3ccccc3c2)ccc1O`, the EC50 [1] was 2.24 µM (active), the IC50 (cells) was > 50 µM (active) and the EC50 [2] was 173 nM (active).
In the case of `Cc1ccc(-c2nc3ccc(C(=O)O)cc3nc2-c2ccc(C)cc2)cc1`, the IC50 (Genome polyprotein) was 55.3 µM (active) and the CC50 [10] was 19.4 µM (active).
With `CCOC(=O)COc1ccc2c(c1)c(C(C)=O)c(C)n2Cc1ccccc1` the IC50 (cells) was 7.41 µM (active).
With `O=C(O)CN1C(=O)C=CC1=O` the IC50 (Genome polyprotein) was > 100 µM (active).
With `O=C(O)c1ccc(Cl)c(S(=O)(=O)Nc2ccc(S(=O)(=O)Nc3cccc(Cl)c3)cc2)c1` the IC50 (Genome polyprotein) was 65.7 µM (active).
In the case of `CCCCOc1ccc(Br)cc1CSC(=N)N`, the AC50 [5] was 1.37 µM (active), the AC50 [6] was 23.6 µM (active) and the AC50 [7] was 2.58 µM (active).
For `c1ccc2c(c1)NC(c1ccncc1)n1c-2nc2ccccc21` (stereo unspecified), the IC50 (Protein skinhead-1) was > 100 µM (inactive).
In the case of `CCCCOC(=O)c1ccc(NC(=O)c2nn(C)cc2Br)cc1`, the IC50 (cells) was 12.2 µM (active).
For `CC(C)c1ccc(NC(=O)Nc2nc(C(N)C3CCCCC3)cs2)cc1` (stereo unspecified), the AC50 [5] was 7.29 µM (active), the AC50 [6] was 13.8 µM (active) and the AC50 [7] was 4.41 µM (active).
For `Clc1ccc(-c2nnc(-c3ccccc3)c(N3CCSCC3)n2)cc1`, the IC50 (Protein skinhead-1) was > 100 µM (inactive).
With `O=C(COc1ncnc2c(Cl)cc(Cl)cc12)N1CCCCC1` the IC50 (Protein skinhead-1) was > 100 µM (inactive).
With `Cc1c(-c2nc(-c3cccnc3)no2)cccc1[N+](=O)[O-]` the IC50 (Protein skinhead-1) was > 100 µM (inactive).
For `COc1ccc(/C=C(/C#N)C(=O)NC2CCCCC2)cc1Br`, the AC50 (Cytochrome P450 3A4) was 25.1 µM (inconclusive) and the AC50 (Cytochrome P450 2C9) was “inconclusive”.
In the case of `COc1cc2ccccc2cc1C(=O)Nc1ccncc1`, the IC50 (Protein skinhead-1) was 52.3 µM (inactive).
With `C=CCN1C(=O)NC(=O)/C(=C\c2ccc(-c3ccccc3[N+](=O)[O-])o2)C1=O` the IC50 (Genome polyprotein) was 25.2 µM (active) and the AC50 [11] was 507 nM (active).
With `CC(C)NS(=O)(=O)c1ccc(CCC(=O)Nc2cc(Cl)ccc2Oc2ccccc2)cc1` the AC50 [5] was 7.65 µM (active), the AC50 [6] was 57.7 µM (active) and the AC50 [7] was 22.5 µM (active).
In the case of `CN1C(c2ccccc2)CC(=NO)CC1c1ccccc1` (stereo unspecified), the IC50 (cells) was 16.6 µM (active).
For `O=Nc1c(O)ccc2cc(S(=O)(=O)O)ccc12`, the IC50 (Genome polyprotein) was 45.7 µM (active).
In the case of `Cc1cc2nnc(SCCCCN3C(=O)c4ccccc4C3=O)n2c2ccccc12`, the AC50 (Cytochrome P450 2C9) was “inconclusive”.
With `COc1cccc(C2=NN(C(C)=O)C(c3cccs3)C2)c1` (stereo unspecified) the IC50 (Protein skinhead-1) was > 100 µM (inactive).
In the case of `CCc1nnc(N/N=C/c2ccc(-c3ccc([N+](=O)[O-])cc3)o2)n1N`, the IC50 (cells) was 12.6 µM (active).
For `O=C(/C=C/Nc1ccc(Br)cc1F)c1ccco1`, the EC50 [12] was 3.64 µM (active), the EC50 [13] was 4.41 µM (active) and the EC50 [1] was 8.72 µM (active). For the same compound, the EC50 [2] was 482 nM (active) and the IC50 (Protein skinhead-1) was 15.4 µM (active).
With `O=C1NC(=O)N(c2ccccc2)C(=O)/C1=C\c1ccccc1[N+](=O)[O-]` the IC50 (Genome polyprotein) was 38.5 µM (active).
In the case of `CCC(=O)NC(c1ccc(OC)c(OC)c1)c1cc(Cl)c2cccnc2c1O` (stereo unspecified), the AC50 [5] was < 0.26 µM (active), the EC50 (Streptokinase A) was > 150 µM (not active) and the EC50 (Streptococcus) was > 150 µM (not active). The EC50 [3] was 4.73 µM (active), the AC50 [6] was 5.6 µM (active) and the AC50 [7] was 2.11 µM (active). For the same compound, the EC50 [8] was 4.86 µM (active) and the EC50 [4] was 0.96 µM (active).
For `CCN(C(=O)CN1C(=O)S/C(=C\c2cccc(Cl)c2)C1=O)C1CCS(=O)(=O)C1` (stereo unspecified), the IC50 (Protein skinhead-1) was > 100 µM (inactive).
With `O=C(NC1CS(=O)(=O)CC1NCc1ccccc1)c1ccccc1` (stereo unspecified) the IC50 (Protein skinhead-1) was > 100 µM (inactive).
